The test system of experiment [1] is patients with alcohol dependence. The experiment in a line: Studies 12014A, 12023A and 12013A taken together (statements on all three studies). Type of experiment: in vivo, human. Conditions: for Difference between nalmefene and placebo in HDDs and TAC, compared with total study population: all three studies. The text has this: The efficacy of nalmefene in the reduction of alcohol consumption in patients with alcohol dependence (DSM-IV) has been evaluated in two efficacy studies (Study 12014A and Study 12023A) and one safety study (Study 12013A) as described in the examples. All three studies were randomized, double blind, parallel-group and placebo-controlled.
The studies included outpatients, aged […], with a primary diagnosis of alcohol dependence. A patient was eligible for participation in the study if, in the 4 weeks preceding the Screening Visit (Baseline period), he/she had >6 HDDs, at least a medium DRL (calculated as mean daily alcohol consumption in g/day i.e. >40 g/day for men and >20 g/day for women calculated as mean daily alcohol consumption over the 4 week period preceding the screening visit), and ≦14 consecutive abstinent days. The timeline followback (TLFB) method was used to obtain estimates of the patient's daily drinking.
At the initial visit (screening visit), the patients' clinical status, social situation, and alcohol consumption pattern were evaluated. After a 1- to 2-week observation period the drinking risk level was re-assessed by calculating mean daily alcohol consumption in g/day over the 1- to 2-week observation period, and treatment with nalmefene was initiated together with counseling with focus on motivating the patients to adhere to the treatment and to change their drinking behavior.
The efficacy of nalmefene was measured using two co-primary endpoints: the change in the monthly number of heavy drinking days (HDDs) and the change in the mean daily total alcohol consumption (TAC) per month (=28 days).
The efficacy of nalmefene on the reduction of alcohol consumption in patients with alcohol dependence (DSM-IV) was evaluated in two efficacy studies (Study 12014A and Study 12023A). Both studies were randomised, double blind, two-parallel group, placebo controlled, and after 6 months of treatment, patients receiving nalmefene were re-randomised to receive either placebo or nalmefene in a 1 month run out period. The efficacy of nalmefene was also evaluated in a randomised, double blind, two parallel group, placebo controlled 1 year safety study (Study 12013A). The studies included 1941 patients, 1144 of whom were treated with nalmefene 18 mg in an as-needed dosing regimen.
The efficacy of nalmefene was measured using two co-primary endpoints: the change in the monthly number of heavy drinking days (HDDs) and the change in the mean daily total alcohol consumption (TAC) per month (=28 days). A HDD was defined as a day with a consumption ≧60 g alcohol for men and 40 g for women. The change in HDD and TAC over time in patients treated with nalmefene or placebo is furthermore reflected in FIGS. 1a and 1b-12a and 12b.

Experiment [2] concerns alcohol dependence. The settings on record: 5, 20 and 40 mg daily doses; Anton et al. 2004; cited from earlier work.
For experiment [3], the system named is alcohol dependence. The settings on record: 20 mg taken when the patient experienced a craving for alcohol; Karhuvaara et al. 2007; cited from earlier work.
The subject of experiment [4] is alcohol dependence. Conditions: 20 to 80 mg daily oral dosing; double-blind, placebo-controlled; Mason et al. 1999; cited from earlier work.

The values that follow come from patent publication US20180028526A1, “NALMEFENE FOR REDUCTION OF ALCOHOL CONSUMPTION IN SPECIFIC TARGET POPULATIONS” (H. Lundbeck A/S, priority 2012, published 2018).

Take `C=C1CC[C@@]2(O)[C@H]3Cc4ccc(O)c5c4[C@@]2(CCN3CC2CC2)[C@H]1O5` [nalmefene, 17-(cyclopropylmethyl)-4,5-alpha-epoxy-6-methylenemorphinan-3,14-diol]: the “Difference between nalmefene and placebo in HDDs and TAC, compared with total study population” value in experiment [1] (patients excluding ERs) was “more pronounced”; in experiment [1] (patients with High DRL at baseline), “more pronounced”; in experiment [1] (patients with High DRL at baseline and randomization) it was “more pronounced”. The “Reducing the number of HDDs and TAC versus placebo” value in experiment [1] (month 6, two 6 month efficacy studies and 12 month safety study, total study population) is reported as “superior to placebo”. In the experiment on alcohol dependence [2], the “Superiority over placebo in the management of alcohol dependence” value is listed as “no evidence of superiority”. Besides, the “Effect over placebo in the management of alcohol dependence” value in the experiment with alcohol dependence [3] was “good effect”. In addition, the “Effect in the management of alcohol dependence” value in the experiment on alcohol dependence [4] is recorded as “good effect”.
